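The compound was tested at five concentrations on cells cultured in 96-well plates, with a 48-hour exposure period. GI50 = concentration required for 50% inhibition of growth. The concentration for full growth arrest is given as TGI.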
Legend:
Assay in all cases: NCI tumour cell line growth inhibition, 48 h
DU-145 prostate = system: DU-145 prostate
MCF7 breast = system: MCF7 breast
EKVX NSCLC = system: EKVX NSCLC
T-47D breast = system: T-47D breast
UO-31 renal = system: UO-31 renal
TK-10 renal = system: TK-10 renal
A549 NSCLC = system: A549 NSCLC
COLO 205 colon = system: COLO 205 colon
HT29 colon = system: HT29 colon
CCRF-CEM leukemia = system: CCRF-CEM leukemia
NCI-H522 lung = system: NCI-H522 lung
SF-539 CNS = system: SF-539 CNS
LOX IMVI melanoma = system: LOX IMVI melanoma
SNB-75 CNS = system: SNB-75 CNS
HS 578T breast = system: HS 578T breast
NCI/ADR-RES ovarian = system: NCI/ADR-RES ovarian
PC-3 prostate = system: PC-3 prostate
OVCAR-8 ovarian = system: OVCAR-8 ovarian
SK-MEL-5 melanoma = system: SK-MEL-5 melanoma
KM12 colon = system: KM12 colon
SW-620 colon = system: SW-620 colon
HCT-15 colon = system: HCT-15 colon
U251 CNS = system: U251 CNS
HOP-92 NSCLC = system: HOP-92 NSCLC
NCI-H226 lung = system: NCI-H226 lung
BT-549 breast = system: BT-549 breast
RXF 393 renal = system: RXF 393 renal

`CN(C)c1nc(NCCNS(=O)(=O)c2ccc(C3=Nc4c(N)nc(N)nc4NC(c4ccc(C(F)(F)F)cc4)C3)cc2)nc(Nc2ccc(F)cc2)n1` (centres undefined) was tested, and the GI50 (DU-145 prostate) was 38.5 µM, the TGI (DU-145 prostate) was greater than 86 µM and the GI50 (MCF7 breast) was 2870 nM. For the same molecule, the TGI (MCF7 breast) was 21 µM, the GI50 (EKVX NSCLC) was 5.52 µM and the TGI (EKVX NSCLC) was greater than 86 µM. The GI50 (T-47D breast) was 12 µM, the TGI (T-47D breast) was greater than 86 µM and the GI50 (UO-31 renal) was greater than 86 µM. For the same molecule, the TGI (UO-31 renal) was greater than 86 µM, the GI50 (TK-10 renal) was greater than 86 µM and the TGI (TK-10 renal) was greater than 86 µM. For the same molecule, the GI50 (A549 NSCLC) was 55 µM, the TGI (A549 NSCLC) was greater than 86 µM and the GI50 (COLO 205 colon) was 9.73 µM. The TGI (COLO 205 colon) was 21.8 µM, the GI50 (HT29 colon) was 4.88 µM and the TGI (HT29 colon) was 18.3 µM. The GI50 (CCRF-CEM leukemia) was 3.24 µM, the TGI (CCRF-CEM leukemia) was greater than 86 µM and the GI50 (NCI-H522 lung) was 17.8 µM. For the same molecule, the TGI (NCI-H522 lung) was 44.8 µM, the GI50 (SF-539 CNS) was 6.22 µM and the TGI (SF-539 CNS) was 24.7 µM. The GI50 (LOX IMVI melanoma) was 3.14 µM, the TGI (LOX IMVI melanoma) was 12 µM and the GI50 (SNB-75 CNS) was 2130 nM. The TGI (SNB-75 CNS) was greater than 86 µM, the GI50 (HS 578T breast) was 9.03 µM and the TGI (HS 578T breast) was greater than 86 µM. The GI50 (NCI/ADR-RES ovarian) was greater than 86 µM, the TGI (NCI/ADR-RES ovarian) was greater than 86 µM and the GI50 (PC-3 prostate) was 4.37 µM. For the same molecule, the TGI (PC-3 prostate) was greater than 86 µM, the GI50 (OVCAR-8 ovarian) was 26.1 µM and the TGI (OVCAR-8 ovarian) was greater than 86 µM. The GI50 (SK-MEL-5 melanoma) was 10.4 µM, the TGI (SK-MEL-5 melanoma) was 21.3 µM and the GI50 (KM12 colon) was 6.14 µM. For the same molecule, the TGI (KM12 colon) was greater than 86 µM, the GI50 (SW-620 colon) was 14.3 µM and the TGI (SW-620 colon) was greater than 86 µM. It also gave a GI50 (HCT-15 colon) of 55.1 µM, a TGI (HCT-15 colon) greater than 86 µM and a GI50 (U251 CNS) of 5.52 µM. The TGI (U251 CNS) was greater than 86 µM, the GI50 (HOP-92 NSCLC) was 2990 nM and the TGI (HOP-92 NSCLC) was 16.9 µM. It also gave a GI50 (NCI-H226 lung) of 37.3 µM, a TGI (NCI-H226 lung) greater than 86 µM and a GI50 (BT-549 breast) of 11.8 µM. It also gave a TGI (BT-549 breast) of 32.6 µM, a GI50 (RXF 393 renal) of 2570 nM and a TGI (RXF 393 renal) of 18.8 µM.

Source: PubChem BioAssay (NCI)
